{
  "source": "patent US8916593B2",
  "about": "“Alkoxy-substituted 2-aminopyridines as ALK inhibitors” (Pfizer Inc., priority 2010, dated 2014)",
  "key": {"[1]": {"molecular_target": "T1, human recombinant wild-type ALK kinase domain (amino acids 1093-1411) (Homo sapiens, UniProt Q9UM73)", "T1 construct": "ALK kinase domain (amino acids 1093-1411); made in house", "T1 sequence (Q9UM73 1093-1411)": "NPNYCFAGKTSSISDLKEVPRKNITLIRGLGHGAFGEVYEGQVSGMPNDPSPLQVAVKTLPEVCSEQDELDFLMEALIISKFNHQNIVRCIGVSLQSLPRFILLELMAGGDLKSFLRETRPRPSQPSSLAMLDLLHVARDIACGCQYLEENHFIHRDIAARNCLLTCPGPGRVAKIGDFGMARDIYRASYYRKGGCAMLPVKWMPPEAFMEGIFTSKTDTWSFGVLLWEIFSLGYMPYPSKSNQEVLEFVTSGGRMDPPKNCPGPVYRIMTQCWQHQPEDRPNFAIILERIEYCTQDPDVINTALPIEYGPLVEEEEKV", "assay": "ALK enzyme assay 2 (microfluidic mobility shift assay);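 also: kinase reaction run 1 h at room temperature, conversion quantified by electrophoretic separation of fluorescent peptide substrate from phosphorylated product, about 15-20% turnover without inhibitor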", "type": "biochemical", "description": "The reactions were incubated for 1 h at room temperature, stopped by the addition of 0.1 M EDTA, pH 8, and the extent of reactions (˜15-20% conversion with no inhibitor) was determined after electrophoretic separation of the fluorescently labeled peptide substrate and phosphorylated product on an LabChip EZ Reader II (Caliper Life Sciences, Hopkinton, Mass.)."}, "[2]": {"molecular_target": "EML4-ALK wt v1 in NIH-3T3 cells (Homo sapiens, UniProt Q9UM73)", "sequence (Q9UM73 with tags, fused parts or gaps)": "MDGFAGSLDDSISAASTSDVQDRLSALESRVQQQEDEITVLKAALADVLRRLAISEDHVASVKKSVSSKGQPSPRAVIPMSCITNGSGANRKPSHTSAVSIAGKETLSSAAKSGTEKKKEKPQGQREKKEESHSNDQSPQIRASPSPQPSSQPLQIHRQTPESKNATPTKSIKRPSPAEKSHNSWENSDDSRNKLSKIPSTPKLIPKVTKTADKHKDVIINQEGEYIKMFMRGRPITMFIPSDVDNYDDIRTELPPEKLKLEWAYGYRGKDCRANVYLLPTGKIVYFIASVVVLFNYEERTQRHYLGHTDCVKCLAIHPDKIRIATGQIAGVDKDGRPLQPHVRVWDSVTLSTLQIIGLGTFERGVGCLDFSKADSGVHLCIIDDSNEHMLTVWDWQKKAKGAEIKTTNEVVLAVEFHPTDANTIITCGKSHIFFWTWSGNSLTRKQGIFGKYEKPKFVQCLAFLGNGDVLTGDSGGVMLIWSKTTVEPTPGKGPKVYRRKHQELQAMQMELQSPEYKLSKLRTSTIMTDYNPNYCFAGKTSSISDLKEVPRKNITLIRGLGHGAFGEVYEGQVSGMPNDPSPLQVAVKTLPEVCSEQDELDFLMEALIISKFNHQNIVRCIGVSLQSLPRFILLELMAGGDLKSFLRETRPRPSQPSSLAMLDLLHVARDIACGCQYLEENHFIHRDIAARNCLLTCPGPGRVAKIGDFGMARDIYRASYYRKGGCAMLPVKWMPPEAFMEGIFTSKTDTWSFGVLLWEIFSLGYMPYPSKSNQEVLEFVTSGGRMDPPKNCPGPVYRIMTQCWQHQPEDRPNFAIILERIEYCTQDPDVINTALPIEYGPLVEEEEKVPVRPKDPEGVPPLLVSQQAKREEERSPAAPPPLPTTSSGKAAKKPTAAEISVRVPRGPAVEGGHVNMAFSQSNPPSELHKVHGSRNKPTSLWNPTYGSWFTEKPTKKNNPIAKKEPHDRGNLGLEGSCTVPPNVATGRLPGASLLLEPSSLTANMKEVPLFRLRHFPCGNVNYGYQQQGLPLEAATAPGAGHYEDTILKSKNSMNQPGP"}},
  "data": [
    {"smiles": "C[C@@H](Oc1nc(-c2cnn(C3CCNCC3)c2)cnc1N)c1cc(F)ccc1-n1nccn1", "note": "[Example 71, 3-{(1R)-1-[5-fluoro-2-(2H-1,2,3-triazol-2-yl)phenyl]ethoxy}-5-[1-(piperidin-4-yl)-1H-pyrazol-4-yl]pyrazin-2-amine]", "values": [
      {"measurement": "Ki", "setting": "[1]", "result": "< 0.2", "unit": "nM"},
      {"measurement": "IC50", "setting": "[2]", "result": 30.3, "unit": "nM"}
    ]},
    {"smiles": "C[C@@H](Oc1cc(-c2cnn(C3CCNCC3F)c2)cnc1N)c1cc(F)ccc1-n1nccn1", "note": "(stereo partly drawn) [Example 74, 5-[1-(3-fluoropiperidin-4-yl)-1H-pyrazol-4-yl]-3-{(1R)-1-[5-fluoro-2-(2H-1,2,3-triazol-2-yl)phenyl]ethoxy} pyridin-2-amine]", "values": [
      {"measurement": "Ki", "setting": "[1]", "result": "< 0.2", "unit": "nM"},
      {"measurement": "IC50", "setting": "[2]", "result": 6.77, "unit": "nM"}
    ]},
    {"smiles": "CCc1nc(CO)sc1-c1cnc(N)c(O[C@H](C)c2cc(F)ccc2-n2nccn2)c1", "note": "[Example 108, [5-(6-amino-5-{(1R)-1-[5-fluoro-2-(2H-1,2,3-triazol-2-yl)phenyl]ethoxy}pyridin-3-yl)-4-ethyl-1,3-thiazol-2-yl]methanol]", "values": [
      {"measurement": "Ki", "setting": "[1]", "result": "< 0.2", "unit": "nM"},
      {"measurement": "IC50", "setting": "[2]", "result": 9.38, "unit": "nM"}
    ]},
    {"smiles": "Cc1nn(C2CCNC2=O)cc1-c1cnc(N)c(O[C@H](C)c2cc(F)ccc2-n2nccn2)c1", "note": "(stereo partly drawn) [Example 139, 3-[4-(6-amino-5-{(1R)-1-[5-fluoro-2-(2H-1,2,3-triazol-2-yl)phenyl]ethoxy}pyridin-3-yl)-3-methyl-1H-pyrazol-1-yl]pyrrolidin-2-one]", "values": [
      {"measurement": "Ki", "setting": "[1]", "result": "< 0.2", "unit": "nM"},
      {"measurement": "IC50", "setting": "[2]", "result": 2.82, "unit": "nM"}
    ]},
    {"smiles": "Cc1nn(CC(O)CO)c(C)c1-c1cnc(N)c(O[C@H](C)c2cc(F)ccc2-n2nccn2)c1", "note": "(stereo partly drawn) [Example 91, 3-[4-(6-amino-5-{(1R)-1-[5-fluoro-2-(2H-1,2,3-triazol-2-yl)phenyl]ethoxy}pyridin-3-yl)-3,5-dimethyl-1H-pyrazol-1-yl]propane-1,2-diol]", "values": [
      {"measurement": "Ki", "setting": "[1]", "result": "< 0.2", "unit": "nM"},
      {"measurement": "IC50", "setting": "[2]", "result": 0.793, "unit": "nM"}
    ]},
    {"smiles": "CCn1cc(-c2cnc(N)c(O[C@H](C)c3cc(F)ccc3-n3nccn3)c2)ccc1=O", "note": "[Example 82, 6′-amino-1-ethyl-5′-{(1R)-1-[5-fluoro-2-(2H-1,2,3-triazol-2-yl)phenyl]ethoxy}-3,3′-bipyridin-6(1H)-one]", "values": [
      {"measurement": "Ki", "setting": "[1]", "result": "< 0.2", "unit": "nM"},
      {"measurement": "IC50", "setting": "[2]", "result": 75.3, "unit": "nM"}
    ]},
    {"smiles": "C[C@@H](Oc1cc(-c2cnc(CS(C)(=O)=O)s2)cnc1N)c1cc(F)ccc1-n1nccn1", "note": "[Example 109, 3-{(1R)-1-[5-fluoro-2-(2H-1,2,3-triazol-2-yl)phenyl]ethoxy}-5-{2-[(methylsulfonyl)methyl]-1,3-thiazol-5-yl}pyridin-2-amine]", "values": [
      {"measurement": "Ki", "setting": "[1]", "result": 0.58, "unit": "nM"},
      {"measurement": "IC50", "setting": "[2]", "result": 9.15, "unit": "nM"}
    ]},
    {"smiles": "CCc1nc(CS(C)(=O)=O)sc1-c1cnc(N)c(O[C@H](C)c2cc(F)ccc2-n2nccn2)c1", "note": "[Example 145, (R)-5-(4-ethyl-2-((methylsulfonyl)methyl)thiazol-5-yl)-3-(1-(5-fluoro-2-(2H-1,2,3-triazol-2-yl)phenyl)ethoxy)pyridin-2-amine]", "values": [
      {"measurement": "Ki", "setting": "[1]", "result": "< 0.2", "unit": "nM"},
      {"measurement": "IC50", "setting": "[2]", "result": 10.5, "unit": "nM"}
    ]},
    {"smiles": "C[C@@H](Oc1cc(-c2ccc(O)nc2)cnc1N)c1cc(F)ccc1-n1nccn1", "note": "[Example 121, 6′-amino-5′-{(1R)-1-[5-fluoro-2-(2H-1,2,3-triazol-2-yl)phenyl]ethoxy}-3,3′-bipyridin-6-ol]", "values": [
      {"measurement": "Ki", "setting": "[1]", "result": 1.04, "unit": "nM"},
      {"measurement": "IC50", "setting": "[2]", "result": 71.3, "unit": "nM"}
    ]},
    {"smiles": "COc1ccc(F)cc1C(C)Oc1cc(-c2ccc(C(C)N)nc2)cnc1N", "note": "(stereo not drawn) [Example 138, 6′-(1-aminoethyl)-5-[1-(5-fluoro-2-methoxyphenyl)ethoxy]-3,3′-bipyridin-6-amine]", "values": [
      {"measurement": "Ki", "setting": "[1]", "result": 0.32, "unit": "nM"},
      {"measurement": "IC50", "setting": "[2]", "result": 8.33, "unit": "nM"}
    ]},
    {"smiles": "COc1ccc(F)cc1[C@@H](C)Oc1nc(-c2ccc([C@H](C)N)cc2)cnc1N", "note": "[Example 68, 5-{4-[(1S)-1-aminoethyl]phenyl}-3-[(1R)-1-(5-fluoro-2-methoxyphenyl)eth-oxy]pyrazin-2-amine]", "values": [
      {"measurement": "Ki", "setting": "[1]", "result": "< 0.2", "unit": "nM"},
      {"measurement": "IC50", "setting": "[2]", "result": 4.5, "unit": "nM"}
    ]},
    {"smiles": "C[C@@H](Oc1cc(-c2ccnc(N3CCOCC3)c2F)cnc1N)c1cc(F)ccc1-n1nccn1", "note": "[Example 131, 3′-fluoro-5-{(1R)-1-[5-fluoro-2-(2H-1,2,3-triazol-2-yl)phenyl]ethoxy}-2′-(morpholin-4-yl)-3,4′-bipyridin-6-amine]", "values": [
      {"measurement": "Ki", "setting": "[1]", "result": 0.638, "unit": "nM"},
      {"measurement": "IC50", "setting": "[2]", "result": 17.6, "unit": "nM"}
    ]}
  ]
}
